These results are taken from patent US6414005B1, “Heterocyclic compounds having nos inhibitory activities” (Chugai Seiyaku Kabushiki Kaisha, priority 1997, dated 2002).

Each structure is given as a SMILES string. pIC50: −log10 of the molar value. Where a name gives a salt, the structure may show the parent alone. Read-outs that look alike come from different tables or passages of the source.

Experiment [1] addresses iNOS (type 2) (Rattus norvegicus, UniProt Q06518). Put plainly: NOS activity, conversion of L-[3H]arginine to L-[3H]citrulline, iNOS. The note with it: 100 nM L-[3H]arginine, 37° C., 10 min. The class given is biochemical. How it is done:
Crude enzymes of the respective NOS isoforms were prepared by the following procedures (Nagafuji et al., Neuroreport 6, 1541-1545, 1995).
The method of measuring NOS activity was basically the same as already reported by the present inventors and consisted of determining quantitatively the conversion of a substrate L-[^3H]arginine to a reaction product L-[^3H] citrulline (Nagafuji et al., in Brain Edema IX (Ito et al, eds.) 60, pp. 285-288, 1994; Nagafuji et al., Neuroreport 6, 1541-1545, 1995)
The reaction solution consisted of 100 nM L-[^3H] arginine, a prepared crude NOS enzyme sample (10-30 μg/ml protein), 1.25 mM CaCl2, 1 mM EDTA, 10 μg/ml calmodulin, 1 mM NADPH, 100 μM tetrahydrobiopterine, 10 μM FAD, 10 μM FMN and 50 mM Tris-HCl (pH 7.4), to which one of the compounds of the invention or one of the control compounds was added.
(§1) The reaction was started by addition of L-[^3H] arginine. After incubation at 37° C. for 10 min, the reaction was terminated by addition of 2 ml of 50 mM Tris-HCl (pH 5.5) containing 1 mM EDTA and placing the mixture on ice. The reaction solution was passed through a cation-exchange resin column (Dowex AG50WX-8, Na^+ form, 3.2 ml) to separate the reaction product L-[^3H] citrulline from the unreacted residual substrate L-[^3H] arginine. The eluate was combined with another eluate resulting from the passage of a given amount of distilled water through the column and put into a minivial for recovery of L-[^3H] citrulline. Thereafter, a scintillation fluid was added and the contained radioactivity was measured with a liquid scintillation counter to determine the amount of L-[^3H] citrulline.

Experiment [2] deals with T1, eNOS (type 3) (Bos taurus, UniProt P29473).
T1 construct: Cow pulmonary arterial endothelium cells (CPAE) were cultured in a MEM medium containing 20% FBS; endogenous in cells; host or cells: CPAE (cow pulmonary arterial endothelium cells), detergent extract, 100,000 x g supernatant
Put plainly: NOS activity, conversion of L-[3H]arginine to L-[3H]citrulline, crude enzyme of eNOS. The class given is biochemical, cow. The note with it: for IC50: crude enzyme from cow pulmonary arterial endothelium cells (CPAE), 100 nM L-[3H]arginine, 37° C., 10 min; for Ratio of IC50 eNOS/inos: index of selectivity.
Procedure: The crude enzyme of eNOS was prepared by the following procedure. Cow pulmonary arterial endothelium cells (CPAE) were cultured in a MEM medium containing 20% FBS. Several days later, the cells were detached from the flask using a 0.25% trypsin solution containing 1 mM EDTA and, after addition of a suitable amount of FBS, centrifuged at 1,000 rpm for 10 min. A suitable amount of Ca- and Mg-free phosphate buffer (pH 7.4) was added to the precipitating cells and they were centrifuged at 1,000 rpm for 10 min. The same step was repeated to wash the cells which, upon addition of 50 mM Tris-HCl (pH 7.4) containing 1% Triton X-100 and 1 mM DTT, were left to stand in ice for 1 h. Subsequently, the mixture was homogenized for 3 min and kept in ice for 30 min with occasional stirring. Finally, the mixture was centrifuged at 100,000×g for 60 min and the resulting supernatant was used as the crude enzyme of eNOS.

Experiment [3] addresses T2, nNOS (type 1) (Rattus norvegicus, UniProt P29476).
T2 construct: from tissue; host or cells: rat cerebral cortex, 100,000 x g supernatant (cytosol)
The experiment in a line: NOS activity, conversion of L-[3H]arginine to L-[3H]citrulline, crude enzyme of nNOS. The class given is biochemical. The note with it: for IC50: crude enzyme from rat cerebral cortex, soluble cytosolic fraction, 100 nM L-[3H]arginine, 37° C., 10 min, read-out: IC50 (nM) nNOS (type 1); for Ratio of IC50 eNOS/nNOS / Ratio of IC50 iNOS/nNOS: index of selectivity. As for the experimental part: The crude enzyme of nNOS was prepared by the following procedure. Normal untreated male Sprague Dawley (SD) rats (body weight, 300-400 g) were decapitated; the whole brain was immediately taken out from each animal and the cerebral cortex was separated on ice. Then, 5 volumes of 50 mM Tris-HCl containing 1 mM DTT (pH 7.4) was added and the mixture was homogenized for 3 min and centrifuged at 1,000×g for 10 min. The resulting supernatant was further centrifuged at 100,000×g for 60 min and a soluble cytosolic fraction of the finally obtained supernatant was used as the crude enzyme of nNOS.
as §1
The activity of nNOS or eNOS was determined by subtracting the activity detected in the absence of CaCl2 and calmodulin from the activity detected in the presence of CaCl2 and calmodulin. The protein concentration of each crude enzyme sample was determined with a micro-assay kit of Bio Rad Co. Each experiment was conducted in a duplicate.

As usually defined, the IC50 is the concentration needed to halve the response being measured. Broadly, the pIC50 is −log10 of the IC50, conventionally taken in molar units.

Chain of iNOS (type 2) (Q06518 whole entry, canonical isoform): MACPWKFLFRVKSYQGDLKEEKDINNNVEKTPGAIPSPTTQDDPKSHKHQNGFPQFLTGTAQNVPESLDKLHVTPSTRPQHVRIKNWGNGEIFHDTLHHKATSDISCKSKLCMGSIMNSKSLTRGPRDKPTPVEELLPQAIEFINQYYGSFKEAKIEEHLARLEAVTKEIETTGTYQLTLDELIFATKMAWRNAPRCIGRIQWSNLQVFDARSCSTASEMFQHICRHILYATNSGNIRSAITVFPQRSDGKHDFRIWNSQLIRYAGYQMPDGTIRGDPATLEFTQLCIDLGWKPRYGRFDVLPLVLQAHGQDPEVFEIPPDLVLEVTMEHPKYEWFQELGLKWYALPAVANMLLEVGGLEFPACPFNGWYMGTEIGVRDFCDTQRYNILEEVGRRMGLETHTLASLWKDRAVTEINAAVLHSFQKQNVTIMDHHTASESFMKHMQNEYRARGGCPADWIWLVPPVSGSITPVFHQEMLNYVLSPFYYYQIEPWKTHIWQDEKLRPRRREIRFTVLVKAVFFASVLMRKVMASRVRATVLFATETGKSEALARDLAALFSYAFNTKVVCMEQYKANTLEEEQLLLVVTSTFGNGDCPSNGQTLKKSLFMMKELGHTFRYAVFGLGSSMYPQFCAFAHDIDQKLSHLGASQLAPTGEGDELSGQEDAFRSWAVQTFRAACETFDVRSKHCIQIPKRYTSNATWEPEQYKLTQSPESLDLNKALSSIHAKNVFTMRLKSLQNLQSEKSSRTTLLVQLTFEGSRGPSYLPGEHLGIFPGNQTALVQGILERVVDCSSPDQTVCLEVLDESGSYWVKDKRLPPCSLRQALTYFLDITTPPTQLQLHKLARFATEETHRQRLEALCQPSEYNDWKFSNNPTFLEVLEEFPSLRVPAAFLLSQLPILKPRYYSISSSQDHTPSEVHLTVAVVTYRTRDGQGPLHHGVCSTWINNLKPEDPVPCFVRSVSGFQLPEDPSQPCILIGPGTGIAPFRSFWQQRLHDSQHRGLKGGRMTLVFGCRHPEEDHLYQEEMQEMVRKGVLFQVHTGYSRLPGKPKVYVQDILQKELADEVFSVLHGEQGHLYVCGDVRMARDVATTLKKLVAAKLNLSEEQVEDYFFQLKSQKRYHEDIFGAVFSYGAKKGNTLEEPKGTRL
T1 sequence (P29473 2-1205): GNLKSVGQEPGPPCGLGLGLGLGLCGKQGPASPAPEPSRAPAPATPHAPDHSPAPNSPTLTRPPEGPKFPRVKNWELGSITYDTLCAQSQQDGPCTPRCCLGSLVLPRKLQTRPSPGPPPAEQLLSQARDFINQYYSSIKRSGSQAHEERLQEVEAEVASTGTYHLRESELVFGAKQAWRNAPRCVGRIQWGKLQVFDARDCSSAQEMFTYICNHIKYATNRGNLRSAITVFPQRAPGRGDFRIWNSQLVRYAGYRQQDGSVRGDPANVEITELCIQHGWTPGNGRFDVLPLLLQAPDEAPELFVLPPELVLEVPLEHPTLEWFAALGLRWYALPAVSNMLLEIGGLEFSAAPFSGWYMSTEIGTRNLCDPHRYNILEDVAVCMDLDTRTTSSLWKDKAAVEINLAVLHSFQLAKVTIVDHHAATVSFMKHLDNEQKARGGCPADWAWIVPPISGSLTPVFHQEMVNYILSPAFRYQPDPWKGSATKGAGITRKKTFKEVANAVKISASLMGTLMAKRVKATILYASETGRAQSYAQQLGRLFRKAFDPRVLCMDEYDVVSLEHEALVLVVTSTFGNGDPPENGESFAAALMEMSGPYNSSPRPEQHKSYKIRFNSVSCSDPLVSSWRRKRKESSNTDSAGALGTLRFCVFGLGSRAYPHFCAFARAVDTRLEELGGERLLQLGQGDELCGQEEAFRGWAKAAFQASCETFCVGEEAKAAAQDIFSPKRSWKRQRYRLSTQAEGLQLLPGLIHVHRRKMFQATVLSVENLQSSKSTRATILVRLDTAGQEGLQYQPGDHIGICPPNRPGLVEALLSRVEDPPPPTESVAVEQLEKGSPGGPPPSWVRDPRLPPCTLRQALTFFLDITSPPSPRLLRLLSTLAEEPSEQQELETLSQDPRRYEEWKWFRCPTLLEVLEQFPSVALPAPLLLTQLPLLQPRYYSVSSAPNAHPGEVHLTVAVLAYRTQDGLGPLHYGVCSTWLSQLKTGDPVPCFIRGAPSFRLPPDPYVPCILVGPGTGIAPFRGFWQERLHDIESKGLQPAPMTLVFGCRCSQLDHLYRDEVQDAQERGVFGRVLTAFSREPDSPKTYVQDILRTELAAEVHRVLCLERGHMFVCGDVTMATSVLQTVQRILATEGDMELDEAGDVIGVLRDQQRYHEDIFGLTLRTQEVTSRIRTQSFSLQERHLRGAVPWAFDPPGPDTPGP

In experiment [1], `N=C(NCCC[C@H](N)C(=O)O)N[N+](=O)[O-]` [L-NA, N^G-nitro-L-arginine] showed an IC50 of 3460 nM.

Consider `CCSC(=N)Nc1ccc(-n2cccn2)c(CN)c1C` [Example 7, N-(3-aminomethyl-2-methyl-4-(pyrazol-1-yl)phenyl)-S-ethylisothiourea dihydrochloride], for which the IC50 came out at 21100 nM in experiment [2] and 22.4 nM in experiment [3]. Also, in experiment [3] (comparison drawn from Table 2), the “selectivity for nNOS inhibition over eNOS compared with L-EIN” value (“selectivity for nNOS inhibition” for short) is reported as “higher selectivity for nNOS inhibition over eNOS than L-EIN”. Also, the “Ratio of IC50 eNOS/nNOS” value in experiment [3] was found to be 943.

Regarding `CSC(=N)NCCC[C@H](N)C(=O)O` [L-MIN, S-methyl-L-thiocitrulline, reference compound], in experiment [2], the IC50 was 35.8 nM and the “Ratio of IC50 eNOS/inos” value was determined as 0.145. In addition, in experiment [3], the negative-log IC50 (pIC50) is 8.24, the “Ratio of IC50 eNOS/nNOS” value is listed as 6.28 and the “Ratio of IC50 iNOS/nNOS” value turned out to be 43.3. The molecule also showed an IC50 in experiment [1] of 248 nM.

Consider `CCSC(=N)NCCC[C@H](N)C(=O)O` [L-EIN, S-ethyl-L-thiocitrulline], for which the 50% inhibitory concentration (IC50) in experiment [2] was determined as 732 nM; in experiment [1] it was 6760 nM. The pIC50 in experiment [3] is 8.08.

Take `N=C(NCCC[C@H](N)C(=O)O)NC1CC1` [L-CPA, N^G-cyclopropyl-L-arginine]: the results for the IC50 in experiment [2] and in experiment [1] were 1540 nM and 7150 nM, respectively.

Take `COC(=O)[C@@H](N)CCCNC(=N)N[N+](=O)[O-]` [L-NAME, N^G-nitro-L-arginine methyl ester, reference compound]: the IC50 in experiment [2] came to 670 nM; in experiment [1] it was 13500 nM.

In the case of `CCSC(=N)Nc1ccc(-n2cccc2)c(CN)c1` [Example 1, N-(3-aminomethyl-4-(pyrrol-1-yl)phenyl)-S-ethylisothiourea dihydrochloride], in experiment [2], half-maximal inhibition (IC50) required 1920 nM and the “Ratio of IC50 eNOS/inos” value worked out at 0.243. In experiment [3] (comparison drawn from Table 2), the “nNOS inhibiting activity compared with L-MIN” value is “more potent nNOS inhibiting activity than L-MIN” and the “selectivity for nNOS inhibition” value is “higher selectivity for nNOS inhibition over eNOS than L-EIN”. In experiment [3], the IC50 came to 3.7 nM, the “Ratio of IC50 eNOS/nNOS” value came to 515 and the “Ratio of IC50 iNOS/nNOS” value was found to be 2120. Half-maximal inhibition in experiment [1] (IC50) was put at 7930 nM.

On to `CCSC(=N)Nc1ccc(-n2cccn2)c(CN)c1` [Example 2, N-(3-aminomethyl-4-(pyrazol-1-yl)phenyl)-S-ethylisothiourea dihydrochloride], for which, in experiment [2], the IC50 came to 5130 nM and the “Ratio of IC50 eNOS/inos” value is listed as 0.250. The “selectivity for nNOS inhibition” value in experiment [3] (comparison drawn from Table 2) was “higher selectivity for nNOS inhibition over eNOS than L-EIN”. Also, in experiment [3], the IC50 worked out at 6.3 nM, the “Ratio of IC50 eNOS/nNOS” value was found to be 816 and the “Ratio of IC50 iNOS/nNOS” value was 3260. The same molecule came in with an IC50 in experiment [1] of 20500 nM.
